pEC50: −log10 of the molar value.

In the experiment the test system is hepatocellular carcinoma cell line Hub-7. Nature of the experiment: Cell proliferation assay, Hub-7 (CELL-TITER GLO). Type of experiment: cell-based. The settings on record: Hub-7 cells, 24 h incubation, cell viability by CELL-TITER GLO, top concentration 10 μM; read-out: EC50, Inhibition of Hub-7 Cell Proliferation. On the procedure:
The activity of a compound was determined in a cell proliferation assay using the hepatocellular carcinoma cell line Hub-7. Cells (4,000 cells per well) were seeded in a 96-well tissue culture plate. After incubated overnight, the compound was added at predetermined concentrations, starting with 10 μM and followed by 3-fold serial dilution. After the cells were incubated for 24 h, cell viability was determined using a CELL-TITER GLO® assay. The CELL-TITER GLO® reagent (50 μL) was added to each well and the luminescence was measured by a multimode microplate reader after a brief period of shaking. EC50 values were determined for the compound. The results are summarized in Table 1, wherein A represents a value no greater than 200 nM, B represents a value greater than 200 nM but no greater than 1 μM, C represents a value greater than 1 μM but no greater than 5 μM, and D represents a value greater than 5 μM.
`C#Cc1nc(C(=O)NCCc2ccc(-c3cn[nH]c3)cc2)cs1` [Compound C76, N-(4-(1H-Pyrazol-4-yl)phenethyl)-2-ethynylthiazole-4-carboxamide]: the pEC50 was 5.30 to 6.00.

In the case of `C#Cc1nc(NC(=O)C=Cc2ccccc2)cs1` [Compound E11, N-(2-Ethynylthiazol-4-yl)cinnamamide], the pEC50 was 6.00 to 6.70.

Regarding `C#Cc1nc(C(=O)N2CCN(c3ccc(-c4cccc5ncsc45)cc3C#N)CC2)cs1` [Compound D12, 5-(Benzo[d]thiazol-7-yl)-2-(4-(2-ethynylthiazole-4-carbonyl)piperazin-1-yl)-benzonitrile], the pEC50 was at least 6.70. Consider `C#Cc1nc(C(=O)N2CCCC(O)C2)cs1` (stereo not drawn) [Compound D34, (2-Ethynylthiazol-4-yl)(3-hydroxypiperidin-1-yl)methanone], for which the pEC50 is under 5.30. The value for `C#Cc1nc(C(=O)NCCc2ccc(C#N)cc2)cs1` [Compound C102, N-(4-Cyanophenethyl)-2-ethynylthiazole-4-carboxamide] was 6.00 to 6.70. Regarding `C#Cc1nc(C(=O)NCCc2ccc(-c3cccc4c3C(=O)C(=O)N4)cc2)cs1` [Compound C14, N-(4-(2,3-Dioxoindolin-4-yl)phenethyl)-2-ethynylthiazole-4-carboxamide], the pEC50 is 6.00 to 6.70.

Turning to `C#Cc1nc(C(=O)N2CCC(O)(c3ccc(-c4cccc5ncsc45)cc3)CC2)cs1` [Compound D14, (4-(4-(Benzo[d]thiazol-7-yl)phenyl)-4-hydroxypiperidin-1-yl)(2-ethynylthiazol-4-yl)methanone], the pEC50 is at least 6.70. The value for `C#Cc1nc(C(=O)NCc2cccc(-c3cnn(C)c3)c2)cs1` [Compound C59, 2-Ethynyl-N-(3-(1-methyl-1H-pyrazol-4-yl)benzyl)thiazole-4-carboxamide] was 5.30 to 6.00. The value for `C#Cc1nc(C(=O)NCCc2cccc(-c3cccc4c3cnn4C)c2)cs1` [Compound C30, 2-Ethynyl-N-(3-(1-methyl-1H-indazol-4-yl)phenethyl)thiazole-4-carboxamide] was 5.30 to 6.00; that for `C#Cc1nc(NC(=O)NCc2ccc(-c3c(C)ccc4c3cnn4C)cc2)cs1` [Compound A15, 1-(4-(1,5-Dimethyl-1H-indazol-4-yl)benzyl)-3-(2-ethynylthiazol-4-yl)urea] was at least 6.70; that for `C#Cc1nc(C(=O)N2CC(c3ccc(-c4cccc5ncsc45)cc3)C2)cs1` [Compound D13, (3-(4-(Benzo[d]thiazol-7-yl)phenyl)azetidin-1-yl)(2-ethynylthiazol-4-yl)-methanone] was at least 6.70.

On to `C#Cc1nc(C(=O)N(CCC(=O)OCC)Cc2ccccc2)cs1` [Compound C116, Ethyl 3-(N-benzyl-2-ethynylthiazole-4-carboxamido)propanoate], for which the pEC50 is 5.30 to 6.00. `C#Cc1nc(C(=O)NCCc2ccc(-c3ccc4ncsc4c3)cc2)cs1` [Compound C42, N-(4-(Benzo[d]thiazol-6-yl)phenethyl)-2-ethynylthiazole-4-carboxamide]: the pEC50 is 6.00 to 6.70. For the compound `C#Cc1nc(C(=O)N(CCO)Cc2ccccc2)cs1` [Compound C133, N-Benzyl-2-ethynyl-N-(2-hydroxyethyl)thiazole-4-carboxamide], the pEC50 was 5.30 to 6.00. The value for `C#Cc1nc(C(=O)NCc2ccccc2Cl)cs1` [Compound C143, N-(2-Chlorobenzyl)-2-ethynylthiazole-4-carboxamide] was 6.00 to 6.70; that for `C#Cc1nc(C(=O)NCc2ccc(C(=O)OC)cc2)cs1` [Compound C117, Methyl 4-((2-ethynylthiazole-4-carboxamido)methyl)benzoate] was 6.00 to 6.70; that for `C#Cc1nc(C(=O)NCc2ccn(C)n2)cs1` [Compound C119, 2-Ethynyl-N-((1-methyl-1H-pyrazol-3-yl)methyl)thiazole-4-carboxamide] was under 5.30.

`C#Cc1nc(C(=O)NCc2ccc3c(c2)OCCO3)cs1` [Compound C86, N-((2,3-Dihydrobenzo[b][1,4]dioxin-6-yl)methyl)-2-ethynylthiazole-4-carboxamide]: the pEC50 was 5.30 to 6.00. For `C#Cc1nc(C(=O)N2CCN(c3ccccc3)CC2)cs1` [Compound D28, (2-Ethynylthiazol-4-yl)(4-phenylpiperazin-1-yl)methanone], the pEC50 is 6.00 to 6.70.

With `C#Cc1ncc(C(=O)NCc2ccccc2)n1C` [Compound C132, N-Benzyl-2-ethynyl-1-methyl-1H-imidazole-5-carboxamide], the pEC50 was under 5.30. `C#Cc1nc(NC(=O)NCc2ccc(-c3cccc4ncnc(O)c34)cc2)cs1` [Compound A9, 1-(2-Ethynylthiazol-4-yl)-3-(4-(4-hydroxyquinazolin-5-yl)benzyl)urea]: the pEC50 was at least 6.70. Consider `C#Cc1nc(C(=O)NCCc2ccc(-c3cccc4scnc34)cc2)cs1` [Compound C31, N-(4-(Benzo[d]thiazol-4-yl)phenethyl)-2-ethynylthiazole-4-carboxamide], for which the pEC50 is 6.00 to 6.70. For `C#Cc1ncc(C(=O)N2CCN(c3ccc(-c4cccc5scnc45)cc3)CC2)s1` [Compound D8, (4-(4-(Benzo[d]thiazol-4-yl)phenyl)piperazin-1-yl)(2-ethynylthiazol-5-yl)methanone], the pEC50 is 6.00 to 6.70. In the case of `C#Cc1nc(C(=O)NCCc2cccc(Cl)c2)cs1` [Compound C110, N-(3-Chlorophenethyl)-2-ethynylthiazole-4-carboxamide], the pEC50 was 6.00 to 6.70. The value for `C#Cc1nc(C(=O)NCc2cccc(C(=O)OC)c2)cs1` [Compound C124, Methyl 3-((2-ethynylthiazole-4-carboxamido)methyl)benzoate] was 6.00 to 6.70; that for `C#Cc1nc(C(=O)N2CCN(c3ccc(-c4cccc5c4cnn5C)cc3)CC2)cs1` [Compound D22, (2-Ethynylthiazol-4-yl)(4-(4-(1-methyl-1H-indazol-4-yl)phenyl)piperazin-1-yl)-methanone] was at least 6.70; that for `C#Cc1nc(C(=O)N2CCCCC2CCO)cs1` (stereo not drawn) [Compound D32, (2-Ethynylthiazol-4-yl)(2-(2-hydroxyethyl)piperidin-1-yl)methanone] was under 5.30. Turning to `C#Cc1nc(NC(=O)NCc2ccc(-c3c(C(N)=O)ccc4ncsc34)cc2)cs1` [Compound A19, 7-(4-((3-(2-Ethynylthiazol-4-yl)ureido)methyl)phenyl)benzo[d]thiazole-6-carboxamide], the pEC50 is 6.00 to 6.70. Turning to `C#Cc1nc(C(=O)NCc2ccc(-c3cccc4[nH]ccc34)cc2)cs1` [Compound C28, N-(4-(1H-Indol-4-yl)benzyl)-2-ethynylthiazole-4-carboxamide], the pEC50 was 5.30 to 6.00. The value for `C#Cc1nc(C(=O)NCCc2ccc(-c3cccc(C(=O)NC)c3)cc2)cs1` [Compound C4, 2-Ethynyl-N-(2-(3′-(methylcarbamoyl)-[1,1′-biphenyl]-4-yl)ethyl)thiazole-4-carboxamide] was at least 6.70; that for `C#Cc1nc(C(=O)NCc2ccc(-c3cccc4c3CC(=O)N4)cc2)cs1` [Compound C37, 2-Ethynyl-N-(4-(2-oxoindolin-4-yl)benzyl)thiazole-4-carboxamide] was 5.30 to 6.00; that for `C#Cc1nc(NC(=O)[C@@H](N)Cc2ccccc2)cs1` [Compound E2, (S)-2-Amino-N-(2-ethynylthiazol-4-yl)-3-phenylpropanamide] was 5.30 to 6.00. The value for `C#Cc1nc(C(=O)NCc2cccc(-c3cccnc3)c2)cs1` [Compound C65, 2-Ethynyl-N-(3-(pyridin-3-yl)benzyl)thiazole-4-carboxamide] was 5.30 to 6.00; that for `C#Cc1nc(C(=O)N2CCN(c3ccc(-c4cccc5ncsc45)cc3)CC2)cs1` [Compound D17, (4-(4-(Benzo[d]thiazol-7-yl)phenyl)piperazin-1-yl)(2-ethynylthiazol-4-yl)-methanone] was at least 6.70; that for `C#Cc1nc(C(=O)NCCc2ccc(-c3ccccc3S(=O)(=O)N(C)C)cc2)cs1` [Compound C6, N-(2-(2′-(N,N-Dimethylsulfamoyl)-[1,1′-biphenyl]-4-yl)ethyl)-2-ethynylthiazole-4-carboxamide] was at least 6.70. The value for `C#Cc1nc(C(=O)NCc2ccc(-c3cnn(C)c3)cc2)cs1` [Compound C83, 2-Ethynyl-N-(4-(1-methyl-1H-pyrazol-4-yl)benzyl)thiazole-4-carboxamide] was 5.30 to 6.00; that for `C#Cc1nc(C(=O)NCCc2ccc(-c3cccc4c3CC(=O)N4)cc2)cs1` [Compound C48, 2-Ethynyl-N-(4-(2-oxoindolin-4-yl)phenethyl)thiazole-4-carboxamide] was 6.00 to 6.70; that for `C#Cc1nc(C(=O)NCc2ccc3ccccc3n2)cs1` [Compound C44, 2-ethynyl-N-(quinolin-2-ylmethyl)thiazole-4-carboxamide] was at least 6.70. With `C#Cc1nc(C(=O)NCCc2ccc(-c3cc4ncsc4cc3F)cc2)cs1` [Compound C1, 2-Ethynyl-N-(4-(6-fluorobenzo[d]thiazol-5-yl)phenethyl)thiazole-4-carboxamide], the pEC50 was 6.00 to 6.70. The value for `C#Cc1nc(C(=O)NCCc2ccc(-c3cccc4[nH]ccc34)cc2)cs1` [Compound C51, N-(4-(1H-Indol-4-yl)phenethyl)-2-ethynylthiazole-4-carboxamide] was 6.00 to 6.70; that for `C#Cc1nc(C(=O)NCc2ccccc2C(=O)OC)cs1` [Compound C74, Methyl 2-((2-ethynylthiazole-4-carboxamido)methyl)benzoate] was 6.00 to 6.70.

Turning to `C#Cc1nc(C(=O)NCc2ccc(-c3ccccc3)cc2)cs1` [Compound C114, N-([1,1′-Biphenyl]-4-ylmethyl)-2-ethynylthiazole-4-carboxamide], the pEC50 was at least 6.70.

(Values after patent publication US20240101546A1, “HETEROARYL-ACETYLENES, PHARMACEUTICAL COMPOSITIONS THEREOF, AND THEIR THERAPEUTIC APPLICATIONS” (Eubulus Biotherapeutics Inc., priority 2020, published 2024).)
